Test system: Unknown protein yeast genes
Assay: DNA chip mRNA expression in yeast, unknown protein yeast genes (Table 1)
Format: cell-based, Saccharomyces cerevisiae S288C
Procedure, shortened: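 Untreated cultures served as reference for log-phase S288C yeast given a growth-inhibiting, non-lethal toxicant dose for 2 h at 25° C. in YPD. Gene expression was measured on a whole-genome DNA chip from Cy3/Cy5-labeled cDNA.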

SMILES: [Cl][Pb][Cl] [(4), PbCl2]
- The level of expressed mRNA in the presence of chemical substance/The level of expressed mRNA in the absence of chemical substance (yeast gene YAL053W, incubated two hours with chemical substance): 2.1
- The level of expressed mRNA in the presence of chemical substance/The level of expressed mRNA in the absence of chemical substance (yeast gene YBL048W): 2.8
- The level of expressed mRNA in the presence of chemical substance/The level of expressed mRNA in the absence of chemical substance (yeast gene YBL107C): 1.5
- The level of expressed mRNA in the presence of chemical substance/The level of expressed mRNA in the absence of chemical substance (yeast gene YDL072C, incubated two hours with chemical substance): 2.1
- The level of expressed mRNA in the presence of chemical substance/The level of expressed mRNA in the absence of chemical substance (yeast gene YDL204W, incubated two hours with chemical substance): 3.4
- The level of expressed mRNA in the presence of chemical substance/The level of expressed mRNA in the absence of chemical substance (yeast gene YDL222C, incubated two hours with chemical substance): 3.9
- The level of expressed mRNA in the presence of chemical substance/The level of expressed mRNA in the absence of chemical substance (yeast gene YDR330W, incubated two hours with chemical substance): 0.8
- The level of expressed mRNA in the presence of chemical substance/The level of expressed mRNA in the absence of chemical substance (yeast gene YDR411C, incubated two hours with chemical substance): 1.2
- The level of expressed mRNA in the presence of chemical substance/The level of expressed mRNA in the absence of chemical substance (yeast gene YDR511W, incubated two hours with chemical substance): 2.3
- The level of expressed mRNA in the presence of chemical substance/The level of expressed mRNA in the absence of chemical substance (yeast gene YDR545W, incubated two hours with chemical substance): 0.7
- The level of expressed mRNA in the presence of chemical substance/The level of expressed mRNA in the absence of chemical substance (yeast gene YEL001C, incubated two hours with chemical substance): 0.7
- The level of expressed mRNA in the presence of chemical substance/The level of expressed mRNA in the absence of chemical substance (yeast gene YER004W, incubated two hours with chemical substance): 1.4
- The level of expressed mRNA in the presence of chemical substance/The level of expressed mRNA in the absence of chemical substance (yeast gene YER035W, incubated two hours with chemical substance): 1.9
- The level of expressed mRNA in the presence of chemical substance/The level of expressed mRNA in the absence of chemical substance (yeast gene YER079W, incubated two hours with chemical substance): 2.0
- The level of expressed mRNA in the presence of chemical substance/The level of expressed mRNA in the absence of chemical substance (yeast gene YER106W, incubated two hours with chemical substance): 1.2
- The level of expressed mRNA in the presence of chemical substance/The level of expressed mRNA in the absence of chemical substance (yeast gene YER158C, incubated two hours with chemical substance): 3.1
- The level of expressed mRNA in the presence of chemical substance/The level of expressed mRNA in the absence of chemical substance (yeast gene YER163C, incubated two hours with chemical substance): 1.6
- The level of expressed mRNA in the presence of chemical substance/The level of expressed mRNA in the absence of chemical substance (yeast gene YER175C, incubated two hours with chemical substance): 2.2
- The level of expressed mRNA in the presence of chemical substance/The level of expressed mRNA in the absence of chemical substance (yeast gene YFL006W, incubated two hours with chemical substance): 1.0
- The level of expressed mRNA in the presence of chemical substance/The level of expressed mRNA in the absence of chemical substance (yeast gene YFL010C, incubated two hours with chemical substance): 1.0
- The level of expressed mRNA in the presence of chemical substance/The level of expressed mRNA in the absence of chemical substance (yeast gene YFL024C): 0.7
- The level of expressed mRNA in the presence of chemical substance/The level of expressed mRNA in the absence of chemical substance (yeast gene YFL032W, incubated two hours with chemical substance): 0.8
- The level of expressed mRNA in the presence of chemical substance/The level of expressed mRNA in the absence of chemical substance (yeast gene YGL037C, incubated two hours with chemical substance): 2.1
- The level of expressed mRNA in the presence of chemical substance/The level of expressed mRNA in the absence of chemical substance (yeast gene YGL047W, incubated two hours with chemical substance): 2.3
- The level of expressed mRNA in the presence of chemical substance/The level of expressed mRNA in the absence of chemical substance (yeast gene YGL053W, incubated two hours with chemical substance): 2.5
- The level of expressed mRNA in the presence of chemical substance/The level of expressed mRNA in the absence of chemical substance (yeast gene YGL121C): 4.2
- The level of expressed mRNA in the presence of chemical substance/The level of expressed mRNA in the absence of chemical substance (yeast gene YGL199C, incubated two hours with chemical substance): 1.0
- The level of expressed mRNA in the presence of chemical substance/The level of expressed mRNA in the absence of chemical substance (yeast gene YGR101W, incubated two hours with chemical substance): 1.1
- The level of expressed mRNA in the presence of chemical substance/The level of expressed mRNA in the absence of chemical substance (yeast gene YGR110W): 5.9
- The level of expressed mRNA in the presence of chemical substance/The level of expressed mRNA in the absence of chemical substance (yeast gene YGR130C, incubated two hours with chemical substance): 1.6
- The level of expressed mRNA in the presence of chemical substance/The level of expressed mRNA in the absence of chemical substance (yeast gene YGR154C, incubated two hours with chemical substance): 0.5
- The level of expressed mRNA in the presence of chemical substance/The level of expressed mRNA in the absence of chemical substance (yeast gene YGR221C, incubated two hours with chemical substance): 1.4
- The level of expressed mRNA in the presence of chemical substance/The level of expressed mRNA in the absence of chemical substance (yeast gene YHR138C, incubated two hours with chemical substance): 2.8
- The level of expressed mRNA in the presence of chemical substance/The level of expressed mRNA in the absence of chemical substance (yeast gene YHR199C, incubated two hours with chemical substance): 2.0
- The level of expressed mRNA in the presence of chemical substance/The level of expressed mRNA in the absence of chemical substance (yeast gene YIL023C, incubated two hours with chemical substance): 1.8
- The level of expressed mRNA in the presence of chemical substance/The level of expressed mRNA in the absence of chemical substance (yeast gene YIL041W, incubated two hours with chemical substance): 1.3
- The level of expressed mRNA in the presence of chemical substance/The level of expressed mRNA in the absence of chemical substance (yeast gene YIL087C, incubated two hours with chemical substance): 1.6
- The level of expressed mRNA in the presence of chemical substance/The level of expressed mRNA in the absence of chemical substance (yeast gene YJL057C, incubated two hours with chemical substance): 1.7
- The level of expressed mRNA in the presence of chemical substance/The level of expressed mRNA in the absence of chemical substance (yeast gene YJL066C, incubated two hours with chemical substance): 2.5
- The level of expressed mRNA in the presence of chemical substance/The level of expressed mRNA in the absence of chemical substance (yeast gene YJL082W, incubated two hours with chemical substance): 1.1
- The level of expressed mRNA in the presence of chemical substance/The level of expressed mRNA in the absence of chemical substance (yeast gene YJL151C, incubated two hours with chemical substance): 1.2
- The level of expressed mRNA in the presence of chemical substance/The level of expressed mRNA in the absence of chemical substance (yeast gene YJL152W, incubated two hours with chemical substance): 1.3
- The level of expressed mRNA in the presence of chemical substance/The level of expressed mRNA in the absence of chemical substance (yeast gene YJL161W, incubated two hours with chemical substance): 4.6
- The level of expressed mRNA in the presence of chemical substance/The level of expressed mRNA in the absence of chemical substance (yeast gene YJL171C, incubated two hours with chemical substance): 1.4
- The level of expressed mRNA in the presence of chemical substance/The level of expressed mRNA in the absence of chemical substance (yeast gene YJR008W, incubated two hours with chemical substance): 1.7
- The level of expressed mRNA in the presence of chemical substance/The level of expressed mRNA in the absence of chemical substance (yeast gene YJR054W, incubated two hours with chemical substance): 0.9
- The level of expressed mRNA in the presence of chemical substance/The level of expressed mRNA in the absence of chemical substance (yeast gene YKL071W): 2.8
- The level of expressed mRNA in the presence of chemical substance/The level of expressed mRNA in the absence of chemical substance (yeast gene YKL086W, incubated two hours with chemical substance): 2.6
- The level of expressed mRNA in the presence of chemical substance/The level of expressed mRNA in the absence of chemical substance (yeast gene YKL151C, incubated two hours with chemical substance): 2.5
- The level of expressed mRNA in the presence of chemical substance/The level of expressed mRNA in the absence of chemical substance (yeast gene YKL153W, incubated two hours with chemical substance): 0.7

From patent US8192962B2, “Processes for detecting toxic substances” (Daikin Industries, Ltd., priority 2001, dated 2012)
